According to ChEMBL document CHEMBL1138104, “Isolation, structure elucidation, antioxidative and immunomodulatory properties of two novel dihydrocoumarins from Aloe vera” (Bioorg Med Chem Lett, 2006):
Active and inactive are the calls of the source. No cut-off for these calls is given here.

Key:
[1] = system: Radical scavenging activity; experiment: Inhibition of hydroxyl radical scavenging activity; assay type: functional; conditions: dose or concentration not given here
[2] = system: Radical scavenging activity; experiment: Inhibition of superoxide radical scavenging activity; assay type: functional; conditions: dose or concentration not given here
[3] = system: Peritoneal macrophage cell; experiment: Phagocytic function of rat peritoneal macrophage at 50-200 ug/ml; assay type: functional, cell-based
[4] = system: Peritoneal macrophage cell; experiment: Enhancement of respiratory burst in rat peritoneal macrophage at 200 uM; assay type: functional, cell-based

SMILES | inhibition [1] [%] | inhibition [2] [%] | Activity [3] | Activity [4]
COc1cc(-c2c(O)cc3c(c2C)[C@@H](c2ccc(O)cc2)CC(=O)O3)oc(=O)c1 | 43.7 | 42.3 | Dose-dependent effect | Active
CCOC(=O)C[C@H](c1ccc(O)cc1)c1c(O)cc(O)c(-c2cc(OC)cc(=O)o2)c1C | 42.3 | 30.3 |  | inactive
